Measured values published in US20260191749A1, “COMPOSITION AND PROCESS OF MAKING BIO-BASED UPCYCLED OILS IN FLOW REACTORS” (RiKarbon, Inc., priority 2022, published 2026).

Assays:
Format in all cases: physicochemical
RI of upcycled oils = assay: RI of upcycled oils
Procedure: (§1) Specifications of Product. Key specifications of RKBA-14, RKBA17, RKBA-22 and RKBA28/33 products were determined by various ASTM methods.

[1] = Boiling point, ASTM D1120, ASTM D6352
Procedure: as §1

[2] = I2 number, USP-NF-2022, issue 1
Procedure: as §1

Flash point, ASTM D93 = assay: Flash point, ASTM D93
Procedure: as §1

Viscosity, ASTM D445 = assay: Viscosity, ASTM D445
Procedure: as §1

Density, ASTM D1209 = assay: Density, ASTM D1209
Procedure: as §1

[3] = Freezing point, ASTM S2386
Procedure: as §1

Pour point, ASTM D6749 = settings: neat oil
Procedure: as §1

Row | Structure (SMILES) | RI (RI of upcycled oils) | Boiling point [1] | 12 number [2] | Flash point (Flash point, ASTM D93) | Viscosity at 40° C. (Viscosity, ASTM D445) | Density (Density, ASTM D1209; at 60º F) | Freezing point [3] | Pour Point (Pour point, ASTM D6749) | Viscosity at 20° C. (Viscosity, ASTM D445; 20° C.) | Viscosity at 100° C. (Viscosity, ASTM D445; 100° C.) | Density (Density, ASTM D1209; at 25° C.)
1 | CCCCCCC(CCCCC)CCCCC [RKBA-17] | 1.4 | 288 ± 12 °C | <0.3g/ g/100 g | 121 ± 13° ° C. | 3.42 cSt | 0.7895 g/mL |  |  |  |  | 
2 | CCCCCCCCCCCC(CCCCC)CCCCC [RKBA-22] |  | 319 ± 5 °C |  | 153 ± 8° ° C. | 6.31 cSt |  | −10.5 ± −4 °C | −21 °C | 11.35 cSt | 1.96 cSt | 0.8049 g/mL
